Values of other authors, collected in patent US8759364B2, “Methods of treating bone mass diseases” (The Trustees of Columbia University in the City of New York, priority 2008, dated 2014).

How the values were obtained:
[1] = test system: serotonin in the GI tract; settings: cited from earlier work
brain serotonin levels = settings: in the amounts administered to mice; cited from earlier work
[2] = oral, single dose 250 mg to 2,000 mg/day and multiple doses 250-1,000 mg/day; all dose levels; cited from earlier work
brain-derived serotonin = settings: mice, cited from earlier work
TPH2 = target: T1, TPH2 (Homo sapiens, UniProt Q8IWU9); settings: cited from earlier work
T1 sequence (Q8IWU9 1-490): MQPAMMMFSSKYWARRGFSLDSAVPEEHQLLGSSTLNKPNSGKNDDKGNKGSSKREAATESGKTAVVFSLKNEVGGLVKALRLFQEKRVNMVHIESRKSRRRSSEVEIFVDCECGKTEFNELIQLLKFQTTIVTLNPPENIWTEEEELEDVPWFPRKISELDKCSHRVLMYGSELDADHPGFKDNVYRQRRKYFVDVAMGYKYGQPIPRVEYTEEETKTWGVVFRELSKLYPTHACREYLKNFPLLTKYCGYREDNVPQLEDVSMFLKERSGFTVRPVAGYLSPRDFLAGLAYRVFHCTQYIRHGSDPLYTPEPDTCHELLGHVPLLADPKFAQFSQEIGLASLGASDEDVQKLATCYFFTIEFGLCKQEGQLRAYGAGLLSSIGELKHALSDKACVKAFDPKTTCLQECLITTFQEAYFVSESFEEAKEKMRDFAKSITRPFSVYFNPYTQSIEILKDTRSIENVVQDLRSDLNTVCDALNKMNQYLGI

[3] = test system: Serotonin levels in the small intestine; settings: mice, twice per day over 3-4 days, about 30-90 mg/kg; after six consecutive doses; cited from earlier work
[4] = in vivo; cited from earlier work

Row | Compound | serotonin in the GI tract reduced to fraction of normal levels ([1]; 135 mg/kg, po, qd) | dose response of GI tract serotonin reduction ([1]; mouse, in vivo) | brain serotonin levels (brain serotonin levels) | adverse events [2] | brain-derived serotonin (brain-derived serotonin; twice per day over 3-4 days, about 30-90 mg/kg) | crossing of the blood-brain barrier in vivo (brain-derived serotonin) | inhibition of TPH2 compared with TPH1 (TPH2) | Serotonin levels in the small intestine [3] | absorption from the GI tract [4]
1 | Nc1nc(OC(c2ccc(-c3cccc(F)c3)cc2)C(F)(F)F)cc(-c2ccc(C[C@H](N)C(=O)O)cc2)n1 (stereo partly drawn) [LP-533401] | less than ⅔ | dose response curve | not affected | Infrequent | unchanged | did not cross | as effectively as | significantly lowered | –
2 | CC(C)NCC(O)COc1cccc2[nH]ccc12 (stereo not drawn) [Pindolol, pindolol] | – | – | – | – | – | – | – | – | beta blocker; rapidly and well
